{"source": "patent US9441238B2", "about": "“Compositions and methods for modulating the sensitivity of cells to AHAS inhibitors” (SYNTHETIC GENOMICS, INC., priority 2012, dated 2016)", "key": {"AHAS": {"tested_on": "AHAS", "conditions": "previously reported, several organisms; cited from earlier work"}, "Nannochloropsis sp.": {"tested_on": "Nannochloropsis sp.", "assay": "Growth inhibition of Nannochloropsis by herbicide in growth media", "assay_type": "cell-based"}}}
{"smiles": "COC(=O)c1ccccc1S(=O)(=O)NC(=O)Nc1nc(C)nc(OC)n1", "note": "[metsulfuron methyl]", "values": [{"measurement": "inhibitor of AHAS activity", "setting": "AHAS", "value": "potent inhibitor"}, {"measurement": "growth of Nannochloropsis sp.", "setting": "Nannochloropsis sp.", "value": "strongly inhibited"}, {"measurement": "concentration that could be used to effectively suppress wild-type growth", "setting": "Nannochloropsis sp.; wild-type", "value": 30, "unit": "µM"}]}
